For series [1], the system named is cerebellar granule cells (CGNs) on immobilized myelin substrate. Kind of series: Screen of about 400 small molecules in a neurite outgrowth assay of CGNs on immobilized myelin. The series is classed as cell-based. Particulars: 5×10^4 CGNs per well on immobilized myelin, grown overnight; 10-fold dilutions centered on IC50; scored by two blind observers. Here is the method: We screened approximately 400 well-characterized small molecules in a neurite outgrowth assay of cerebellar granule cells (CGNs) on immobilized myelin substrate. Myelin was immobilized on 96-well plates using published methods (8). Individual compounds from a signaling molecule targeted drug library (TOCRIS) were diluted by 10-fold dilutions centered on their IC50 values, in concentrations typically varying from low nanomolar to micromolar, and transferred to culture wells with 5×10^4 CGNs per well. Cells were grown overnight, fixed in paraformaldehyde, and stained with tubulin antibodies. Outgrowth was independently scored by two blind observers. Positively scored compounds were picked for further verifications. Each compound was evaluated at a 10^4 dilution range centered on its IC50 value to ensure effective concentrations for each drug tested. Several internal controls, including cAMP analogues, phosphodiesterase inhibitors, and a Rho-associated protein kinase inhibitor were identified in the screen, confirming previous findings and validating our approach.

A further series has as its system EGFR. Description: EGFR phosphorylation in serum-starved CGNs (immunoblot of neuronal lysates). The series is classed as cell-based. The note with it: for effect on EGFR phosphorylation subsequent to Nogo-66 treatment: CGNs, Nogo-66-elicited trans-activation; for effect on direct EGFR activation by EGF: EGF stimulation; for induction of EGFR phosphorylation: serum-starved CGNs, Nogo-66 and OMgp at 5 nM. The text has this:
To examine whether myelin inhibitors directly influence the activity of EGFR in myelin-responsive neurons, we treated serum-starved CGNs with recombinant soluble myelin inhibitors and assessed the EGFR receptor activity.
Previously, we developed a truncated form of NgR that has the ability to bind to ligands but not its signaling co-receptors (8-10, 12). When over-expressed, the truncated receptor can compete with endogenous NgR for coreceptor binding and thus block inhibitor-induced signaling pathways (8-10, 12). […] It is known that in addition to activation by its cognate ligands, EGFR phosphorylation can also result from “trans-activation” by other signaling pathways (22, 23). For example, angiotensin II acts through the angiotensin AT1 receptor, to promote growth of cardiomyocytes via trans-activation of the EGFR and activation of MAP kinase (23). […] We examined whether any of these mechanism(s) are involved in the NgR-dependent EGFR trans-activation by inhibiting specific signaling pathways pharmacologically. […]

The next series concerns CNS neurons. Particulars: CNS neurons overexpressing SOCS2; cited from earlier work.
A further series deals with CGNs. Description: Neurite outgrowth assay of P7-9 CGNs on control and myelin inhibitor substrates. The series is classed as cell-based. The note with it: AG1288 1 μM, AG1478 10 nM, PD168393 10 nM; 20 hr; about 500 neurons per condition. Here is the method: (§1) To confirm the involvement of EGFR kinase in myelin inhibition, we tested two well-characterized EGFR inhibitors with distinctive mechanisms of action, AG1478 and PD168393, and a non-receptor tyrosine kinase inhibitor, AG1288, in the outgrowth assay. P7-9 CGNs were plated on control and immobilized myclin substrate and grown in the presence of AG1288 (1 μM), AG1478 (10 nM) and PD168393 (10 nM) for 20 hr (8, 10). Cells were fixed in paraformaldehyde and stained with anti-tubulin antibody (Tuj1, Covance) to visualize and quantitate neurite length. […] Approximately 500 neurons were counted for each condition from at least 3 independent experiments. All AG1478 and PD168393 treatments on inhibitors were significant. In contrast, none of the treatments affected either the neurite outgrowth on a control poly-D-lysine (PDL) substrate or neuronal survival. Similarly, EGFR kinase inhibitors were able to block myelin neurite outgrowth inhibition in retinal explant cultures grown within a collagen matrix laden with myelin. P5-6 mouse retinas were dissected and cut into small explants on a tissue chopper. The resultant explants were cultured within a collagen matrix with and without myelin (10 μg/ml) in the presence or absence of PD168393 (10 nM) for 72 hrs. Explants were fixed and stained with anti-tubulin antibodies.

For the next series, the system named is Retinal explants. Kind of series: Retinal explant neurite outgrowth in collagen gels with CSPGs. The note with it: CSPGs 200 ng/ml in collagen gels; PD168393 100 nM; three days. Type of series: cell-based. Here is the method:
In addition to myelin inhibitors, chondroitin sulfate proteoglycans (CSPGs) in the glial scar represent a major hurdle for regenerating axons. […] Retinal explants were grown in collagen gels with and without CPSGs (200 ng/ml, Chemicon) and PD168393 (100 nM) for three days, fixed and stained with anti-tubulin antibodies. […] In contrast, neither growth cone collapse nor repulsive responses induced by Sema3A were affected by EGFR inhibitors.

For series [2], the system named is lesioned optic nerve fibers. The series is classed as in vivo. The text has this:
The finding that inhibiting neuronal EGFR activity could efficiently block the inhibitory activity of both myelin inhibitors and CSPGs prompted us to examine whether EGFR inhibitors introduced at a CNS lesion site could promote axon regeneration in a model of optic nerve crushing (28). All animal experiments were done in accordance with protocols approved by the institutional animal care and use committee at Schepens Eye Research Institute. Adult mouse optic nerves were exposed behind the eyeball and crushed. Immediately after injury in adult mice, Gelfoam soaked in a solution containing the EGFR inhibitor PD168393 or 0.1% DMSO (control) was placed against the crush site of the nerve and replaced every three days for the first six days of the study. Animals were sacrificed two weeks post injury followed by transcardial perfusion with 4% paraformaldehyde. Optic nerves were cryosectioned at 10 μm and stained with an anti-GAP43 antibody (Chemicon) to detect regenerating axons (28). Little regeneration was detected in DMSO-treated control mice. […] To test the possibility that the observed axon regrowth of retinal ganglion neurons (RGCs) after PD168393 treatment was a consequence of improved cell survival, we stained retinal sections with the anti-tubulin Tuj1 antibody, which stains RGCs in the retina, and counted surviving RGCs. […]

Series [3] relates to P5-6 mouse retinal explants. Description: Retinal explant outgrowth in collagen matrix laden with myelin. The series is classed as cell-based. The note with it: myelin 10 μg/ml in collagen matrix; PD168393 10 nM; 72 hrs; Student's t test P<0.0001. Here is the method:
as §1

The subject of series [4] is dorsal root ganglion (DRG) neurons. Description: Neurite outgrowth assay of DRG neurons on myelin inhibitor substrates. Type of series: cell-based.
In series [5] the test system is neurons of the crushed right internal parietal (RIP) nerve. Particulars: pond snail Lymnaea stagnalis; cited from earlier work.
In the next series the test system is PC12 cells. The note with it: cultured PC12 cells; cited from earlier work.
Series [6] concerns PC12 cell lines with reduced EGFR signaling. The note with it: cited from earlier work.

For the molecule `N#C/C(=C\c1ccc(O)c(O)c1)C(N)=S` [Tyrphostin A47], the “ability to counter the effects of myelin inhibition on neurite outgrowth” value in series [1] was “showed the greatest ability to counter the effects of myelin inhibition”.

As for pertussis toxin, the “effect on EGFR phosphorylation subsequent to Nogo-66 treatment” value (“effect … to Nogo-66 treatment” for short) with EGFR is “had no effect”.

For the molecule `N#C/C(=C\c1ccc(O)c(O)c1)C(N)=O` [Tyrphostin A46], the “ability to counter the effects of myelin inhibition on neurite outgrowth” value in [1] was “showed the greatest ability to counter the effects of myelin inhibition”.

As for `Cn1c2ccccc2c2c3c(c4c5ccccc5n(CCC#N)c4c21)CNC3=O` [Go6976], in the series on EGFR, the “effect … to Nogo-66 treatment” value was “had no effect”.

Take `Nc1ncnc2c1cnn2-c1ccccc1` [PP3]: the “effect on neurite outgrowth promoted by SOCS2 overexpression” value with CNS neurons is reported as “outgrowth is blocked”.

In the case of `CC(C)(C)n1nc(-c2ccc(Cl)cc2)c2c(N)ncnc21` [PP2], the “effect … to Nogo-66 treatment” value in the series on EGFR was “had no effect”.

As to `O=C(O)CN(CCOCCOCCN(CC(=O)O)CC(=O)O)CC(=O)O` [EGTA], in the series on EGFR, the “effect … to Nogo-66 treatment” value is given as “significantly decreased EGFR phosphorylation” and the “effect on direct EGFR activation by EGF” value was “neither EGTA nor BAPTA-AM had any effect”.

Consider `CC(=O)OCOC(=O)CN(CC(=O)OCOC(C)=O)c1ccccc1OCCOc1ccccc1N(CC(=O)OCOC(C)=O)CC(=O)OCOC(C)=O` [BAPTA-AM], for which, in the series with EGFR, the “effect … to Nogo-66 treatment” value was “significantly decreased EGFR phosphorylation” and the “effect on direct EGFR activation by EGF” value is given as “neither EGTA nor BAPTA-AM had any effect”.

For `C=CC(=O)Nc1ccc2ncnc(Nc3cccc(Br)c3)c2c1` [PD168393], in the series with CGNs, the “promotion of neurite outgrowth from CGNs on whole myelin and individual myelin inhibitors (Nogo-66, MAG)” value is recorded as “effectively promoted neurite outgrowth”. In the series on Retinal explants, the “neurite length of retinal explants compared to CSPGs alone” value is reported as “significantly increased neurite length”. Moreover, in series [2] (adult mice, measured 0.25 mm beyond the injury site, two weeks post injury, GAP43 staining, DMSO control), the “increase in the number of regenerating axons compared to control mice” value was determined as 9 fold. For the same molecule, the “effect on RGC survival” value in series [2] (mouse, in vivo) was “No detectable effect”. The “outgrowth of retinal explants in myelin cultures compared to myelin alone” value in series [3] is on record as “significantly promoted outgrowth of explants”. The “promotion of neurite outgrowth from DRG neurons on whole myelin and individual myelin inhibitors (Nogo-66, MAG)” value in [4] is “effectively promoted neurite outgrowth”.

On to `COc1cc2ncnc(Nc3cccc(Br)c3)c2cc1OC` [PD153035], for which the “effect on EGF-promoted axonal regeneration” value in series [5] was “counteracts the effect of EGF on axonal regeneration”.

As for TAPI, the “effect … to Nogo-66 treatment” value in the series with EGFR is listed as “had no effect”.

With `COc1cc2ncnc(Nc3cccc(Cl)c3)c2cc1OC` [AG1478], in the series with CGNs, the “promotion of neurite outgrowth from CGNs on whole myelin and individual myelin inhibitors (Nogo-66, MAG)” value is “effectively promoted neurite outgrowth”. In addition, in the series on PC12 cells, the “effect on versican V1-induced neuronal differentiation” value was “significantly blocks differentiation”. Further, in series [6], the cytotoxicity entry is listed as “cytotoxic”. Moreover, the “promotion of neurite outgrowth from DRG neurons on whole myelin and individual myelin inhibitors (Nogo-66, MAG)” value in [4] was “effectively promoted neurite outgrowth”.

Turning to `CNC(=O)[C@H](Cc1c[nH]c2ccccc12)NC(=O)[C@@H](CC(=O)NO)CC(C)C` [GM6001], the “effect … to Nogo-66 treatment” value in the series on EGFR is listed as “had no effect”.

As to `C[C@@H](NC(=O)/C(C#N)=C/c1ccc(O)c(O)c1)c1ccccc1` [Tyrphostin B44(−)], the “ability to counter the effects of myelin inhibition on neurite outgrowth” value in series [1] was “showed the greatest ability to counter the effects of myelin inhibition”.

Regarding `N#C/C(=C\c1ccc(O)c(O)c1)C(=O)NCc1ccccc1` [AG490], the “effect on neurite outgrowth promoted by SOCS2 overexpression” value in the series with CNS neurons is “outgrowth is blocked”.

B1: Semaphorin3A: chemorepellant (protein, UniProt Q14563 21-771, looked up)
Semaphorin-3A: NYQNGKNNVPRLKLSYKEMLESNNVITFNGLANSSSYHTFLLDEERSRLYVGAKDHIFSFDLVNIKDFQKIVWPVSYTRRDECKWAGKDILKECANFIKVLKAYNQTHLYACGTGAFHPICTYIEIGHHPEDNIFKLENSHFENGRGKSPYDPKLLTASLLIDGELYSGTAADFMGRDFAIFRTLGHHHPIRTEQHDSRWLNDPKFISAHLISESDNPEDDKVYFFFRENAIDGEHSGKATHARIGQICKNDFGGHRSLVNKWTTFLKARLICSVPGPNGIDTHFDELQDVFLMNFKDPKNPVVYGVFTTSSNIFKGSAVCMYSMSDVRRVFLGPYAHRDGPNYQWVPYQGRVPYPRPGTCPSKTFGGFDSTKDLPDDVITFARSHPAMYNPVFPMNNRPIVIKTDVNYQFTQIVVDRVDAEDGQYDVMFIGTDVGTVLKVVSIPKETWYDLEEVLLEEMTVFREPTAISAMELSTKQQQLYIGSTAGVAQLPLHRCDIYGKACAECCLARDPYCAWDGSACSRYFPTAKRRTRRQDIRNGDPLTHCSDLHHDNHHGHSPEERIIYGVENSSTFLECSPKSQRALVYWQFQRRNEERKEEIRVDDHIIRTDQGLLLRSLQQKDSGNYLCHAVEHGFIQTLLKVTLEVIDTEHLEELLHKDDDGDGSKTKEMSNSMTPSQKVWYRDFMQLINHPNLNTMDEFCEQVWKRDRKQRRQRPGHTPGNSNKWKHLQENKKGRNRRTHEFERAPRSV
On to B1, for which the “induction of EGFR phosphorylation” value with EGFR is reported as “neither a control alkaline phosphatase (AP) protein nor the chemorepellant Semaphorin3A (Sema3A) induced detectable levels”.

B2: OMgp: recombinant soluble myelin inhibitor, oligodendrocyte myelin glycoprotein (protein, UniProt P23515 25-417, looked up)
Oligodendrocyte-myelin …: ICPLQCICTERHRHVDCSGRNLSTLPSGLQENIIHLNLSYNHFTDLHNQLTQYTNLRTLDISNNRLESLPAHLPRSLWNMSAANNNIKLLDKSDTAYQWNLKYLDVSKNMLEKVVLIKNTLRSLEVLNLSSNKLWTVPTNMPSKLHIVDLSNNSLTQILPGTLINLTNLTHLYLHNNKFTFIPDQSFDQLFQLQEITLYNNRWSCDHKQNITYLLKWMMETKAHVIGTPCSTQISSLKEHNMYPTPSGFTSSLFTVSGMQTVDTINSLSVVTQPKVTKIPKQYRTKETTFGATLSKDTTFTSTDKAFVPYPEDTSTETINSHEAAAATLTIHLQDGMVTNTSLTSSTKSSPTPMTLSITSGMPNNFSEMPQQSTTLNLWREETTTNVKTPLPS
With B2, the “induction of EGFR phosphorylation” value with EGFR was “triggered EGFR phosphorylation as early as 1 min post-stimulation”.

(Values after patent publication US8142782B2, “EGFR inhibitors promote axon regeneration” (Children's Medical Center Corporation, priority 2005, dated 2012).)
